Several values for one entry are separate records, joined by “and”; a condition that tells them apart may be missing. Identical values can stand only once.
What was measured:
[1] = biological target: T1, acetylcholinesterase (AChE, from an electric eel) (Electrophorus electricus, UniProt O42275); assay: biochemical; details: for IC50: electric eel AChE, Ellman's method, pH 7.4, means ± SEM of at least three experiments, read-out: IC50 AChE Inhibition; for Selectivity Index = IC50 (AChE)/IC50 (BuChE): ratio of eeAChE and equine BuChE IC50
T1 construct: purchased Sigma-Aldrich
T1 sequence (O42275 24-633): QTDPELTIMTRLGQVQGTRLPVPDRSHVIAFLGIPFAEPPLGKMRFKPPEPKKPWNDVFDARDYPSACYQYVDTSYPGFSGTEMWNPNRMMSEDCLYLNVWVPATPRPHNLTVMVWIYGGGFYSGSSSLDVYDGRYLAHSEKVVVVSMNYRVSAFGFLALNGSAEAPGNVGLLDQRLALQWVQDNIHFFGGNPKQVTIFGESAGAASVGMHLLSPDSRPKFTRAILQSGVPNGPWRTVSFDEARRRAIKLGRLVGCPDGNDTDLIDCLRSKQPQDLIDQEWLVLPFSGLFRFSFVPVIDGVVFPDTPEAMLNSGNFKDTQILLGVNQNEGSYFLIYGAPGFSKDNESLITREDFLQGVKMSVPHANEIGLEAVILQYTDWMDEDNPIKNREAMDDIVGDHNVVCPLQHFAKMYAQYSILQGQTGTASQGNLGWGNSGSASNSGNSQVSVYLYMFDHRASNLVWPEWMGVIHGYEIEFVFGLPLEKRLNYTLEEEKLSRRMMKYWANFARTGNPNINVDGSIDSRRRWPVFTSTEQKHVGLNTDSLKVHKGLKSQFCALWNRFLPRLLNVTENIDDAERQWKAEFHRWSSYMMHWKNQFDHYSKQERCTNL
Description: (§1) Cholinesterase (ChE) inhibitory activity was evaluated using a modified Ellman’s spectrophotometric method. Acetylcholinesterase (AChE, from electric eel), butyrylcholinesterase (BuChE, from equine serum), 5,5′-dithiobis-(2-nitrobenzoic acid) (Ellman’s reagent, DTNB), S-butyrylthiocholine iodide (BTCI), acetylthiocholine iodide (ATCI), and tarcine hydrochloride were purchased from Sigma-Aldrich. Tarcine hydrochloride was used as a reference standard. All the assays were carried out in 0.1 M KH2PO4/K2HPO4 buffer (pH = 7.4). Stock solutions of tested compounds (10 mM) were prepared in DMSO (below 0.5%, v/v) and diluted in phosphate buffer. The assay was performed in 96-well plate by adding 25 μL of 1 mM acetylthiocholine iodide or butyrylthiocholine iodide used as substrate in the assay, 125 μL of 1 mM 5,5′-dithiobis-(2-nitrobenzoic acid) (DTNB), 25 μL of 0.1 M phosphate buffer (pH = 7.4), 25 μL of testing substance in various concentrations, and 50 μL of 0.2 Units/mL AChE from an electric eel or BuChE from equine serum, respectively. At least five concentrations of the test compounds were assayed. […] The enzyme activity and the percentage inhibition were determined.

[2] = biological target: T2, butyrylcholinesterase (BuChE, from horse serum) (Equus caballus, UniProt P81908); assay: biochemical; details: equine serum BuChE, Ellman's method, pH 7.4; means ± SEM of at least three experiments; read-out: IC50 BuChE Inhibition
T2 construct: purchased Sigma-Aldrich
T2 sequence (P81908 whole entry): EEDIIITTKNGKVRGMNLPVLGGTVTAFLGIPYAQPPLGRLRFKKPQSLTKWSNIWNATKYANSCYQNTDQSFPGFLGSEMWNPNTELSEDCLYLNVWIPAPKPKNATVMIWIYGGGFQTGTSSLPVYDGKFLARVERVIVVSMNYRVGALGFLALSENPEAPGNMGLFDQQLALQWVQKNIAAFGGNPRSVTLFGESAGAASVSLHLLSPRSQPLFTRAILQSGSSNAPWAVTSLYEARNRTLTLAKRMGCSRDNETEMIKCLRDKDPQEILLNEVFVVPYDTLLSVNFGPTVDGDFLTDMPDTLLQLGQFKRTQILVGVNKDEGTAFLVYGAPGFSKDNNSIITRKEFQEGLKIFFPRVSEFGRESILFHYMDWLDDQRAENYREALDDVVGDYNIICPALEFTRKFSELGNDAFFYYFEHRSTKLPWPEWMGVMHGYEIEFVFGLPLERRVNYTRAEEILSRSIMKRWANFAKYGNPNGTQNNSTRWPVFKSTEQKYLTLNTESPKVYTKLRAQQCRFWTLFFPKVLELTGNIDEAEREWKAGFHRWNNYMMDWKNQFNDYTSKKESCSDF
Description: as §1

Aβ1–42 = biological target: T3, Aβ1–42 (Homo sapiens, UniProt P05067); assay: Inhibition of self-induced Aβ1–42 aggregation (ThT fluorescence); format: biochemical; details: 20 μM compound, thioflavin-T fluorescence, mean ± SD of at least three independent experiments; read-out: Aβ Aggregation Inhibition (%), self-induced Aβ1–42
T3 construct: aggregation of Aβ1–42 synthetic peptide into fibrils
T3 sequence (P05067 672-713): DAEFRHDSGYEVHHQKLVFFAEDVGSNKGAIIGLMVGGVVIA
Description: Self-induced Aβ1–42 aggregation of all the compounds we obtained was also evaluated. […] ThT is a histochemical dye that is known to bind to the peptide β-sheet conformation, which is the predominant secondary structure of amyloid-beta fibrils. […] The inhibition studies were carried out upon incubating Aβ1–42 with and without the compounds.
Aβ1–42 was dissolved in 100% 1,1,1,3,3,3-[…] (HFIP) to a concentration of 1 mg/mL, sonicated in a water bath overnight, aliquoted into microcentrifuge tubes, dried under vacuum, and stored at −20 °C. Immediately prior to use, the HFIP-treated Aβ1–42 was dissolved in dimethylsulfoxide (DMSO) as the stored solution. […] Amounts of 5 μL of compound (200 μM) and 5 μL of 200 μM Aβ1–42 were added into 40 μL of phosphate-buffered saline (PBS at pH 7.4). After incubation at room temperature on a thermostatic shaker for 72 h, 100 μL of 5 μM ThT solution (in PBS at pH 7.4) was added to the reaction solution. […] The Aβ1–42 aggregation inhibition percentage was calculated using the following formula: inhibition percentage = (F1 − F2)/(F1 − F0) × 100%.

[3] = Metal chelation by UV–vis spectrometry, Job's method and affinity estimate (Cu); format: physicochemical; details: for LogK Cu (affinity of ligand for Cu^II, ML2): 2L+M⇔ML2; for Mole fraction of compound at the intersection of the Job plot (Cu^II): Job's method, CuSO4, sum of concentrations 20 μm; for Maximum absorption of compound–Cu^II complex: bathochromic shift from 246 nm of the free compound
Text: (§2) Given the 8-hydroxy(amino)quinoline moiety with the properties to bind metal ions, the abilities of all the compounds in binding metal ions (Cu^II, Fe^III, Zn^II) were studied by UV–vis spectrometry. At first three compounds were chose to test the binding abilities. Upon the addition of CuCl2 or ZnSO4 the maximum absorption suffered a bathochromic shift, pointing out the formation of complex compound–Cu^II. […] […].
(§3) To determine the stoichiometry of the complex compound–Cu^II, the technique of continuous variations (also called Job’s method) was used by preparing solutions of compounds 15a, 17b and CuSO4 so that the sum of concentrations of both species was constant at […] in all samples, but the proportions of both components varied between 0 and 100%. The UV spectra were recorded and the absorbance change at the maximum absorption wavelength of the compound-Cu^II complex, meaning the 15a-Cu^II complex at 264 nm and the 17b-Cu^II at 265 nm, respectively. The absorbance change was plotted versus the mole fraction of the compound, giving two straight lines whose equations were calculated. […] […].
(§4) Since all the ligands studied L from ML2 species and in accordance with the Beer–Lambert law, complexation reactions can be summarized as 2L+M⇔ML2 with K = 1−α/4C^2α^3 , and α can be calculated from the data of the absorption.
(§5) Metal-chelating properties were evaluated by UV–vis spectrometry. To screen the ability of chelating metal ions, the same concentrations of compound and metal ion were mixed in CH3OH/H2O (v/v = 9/1), and the UV–vis spectrum was tested; compared to the compound, the maximum absorption that suffered a bathochromic shift would point out the formation of a complex compound–metal ion. The stoichiometry of the complex compound–metal ion was determined by Job’s method. The affinity of compounds 15–17 as ligands (excepted 15f, 16d, 16g, 16k) for Cu^II or Zn^II were estimated in the CH3OH/H2O solution (v/v = 9/1). Since all the ligands studied L from ML2 species and in accordance with the Beer–Lambert law, complexation reactions can be summarized as 2L+M⇔ML2 with K = 1−α/4C^2α^3 , and α = A/Amax; A was the data of absorption tested when the compound–metal ion = 2/1 under the maximum absorption wavelength of the complex, Amax was the absorption when the compound completely formed a complex with the metal ion; the data can be obtained as an approximation when the metal ion is in excess, and the absorption changes little as the concentration of metal ion still increases.

[4] = Metal chelation by UV–vis spectrometry, stoichiometry and affinity estimate (Zn); format: physicochemical; details: for LogK Zn (affinity of ligand for Zn^II, ML2): 2L+M⇔ML2; for Maximum absorption of compound–Zn^II complex: bathochromic shift from 246 nm of the free compound
Text: as §2, §3, §4, §5

[5] = Metal chelation by UV–vis spectrometry (Fe); format: physicochemical
Description: as §2, §5

[6] = biological target: T4, electric eel AChE (eeAChE) (Electrophorus electricus, UniProt O42275); assay: Kinetic study of AChE inhibition (Lineweaver–Burk plots); format: biochemical; details: 16e at 10, 50 and 100 nM, Lineweaver–Burk plot
T4 construct: purchased Sigma-Aldrich
T4 sequence (O42275 24-633): as the sequence (O42275 24-633) above
Description: To elucidate the mechanism of AChE’s inhibition by the synthesized hybrids, a detailed enzyme kinetic study was conducted using electric eel AChE (eeAChE).
The slope (Km/Vmax) reflects the apparent enzyme–substrate affinity, whereas the y-intercept (1/Vmax) corresponds to the maximum reaction velocity.
The assay medium contained 25 μL of PBS (pH 7.4), 50 μL of enzyme, 25 μL of compound solution, and 125 μL of 1.0 mM DTNB; the reaction was started by addition of 25 μL of different concentrations of ATC.
The slope (Km/Vmax) reflects the enzyme’s affinity for the substrate in the presence of the inhibitor, while the y-intercept (1/Vmax) indicates the maximum velocity of the reaction.

[7] = set-up: method as in PMID 17382398; details: data from the literature ref 50; cited from earlier work
[8] = set-up: method as in PMID 17382398; details: data from the literature ref 50; cited from earlier work; remark: listed apart in the source

Row | Compound | IC50 [1] | Selectivity Index = IC50 (AChE)/IC50 (BuChE) [1] | IC50 [2] | inhibition at 20 µM (Aβ1–42) | LogK Cu (affinity of ligand for Cu^II, ML2) ([3]; CH3OH/H2O (v/v = 9/1), UV–vis) | Mole fraction of compound at the intersection of the Job plot (Cu^II) [3] | Maximum absorption of compound–Cu^II complex ([3]; UV–vis) | LogK Zn (affinity of ligand for Zn^II, ML2) ([4]; CH3OH/H2O (v/v = 9/1)) | Maximum absorption of compound–Zn^II complex [4] | Complex formation with Fe^III (UV–vis shift) [5] | Type of AChE inhibition [6] | Complex formation with Cu^II (UV–vis shift / binding) ([3]; UV–vis, CH3OH/H2O (v/v = 9/1)) | Complex formation with Zn^II (UV–vis shift / binding) ([4]; CH3OH/H2O (v/v = 9/1)) | LogK Cu, value in parentheses [7] | LogK Zn, value in parentheses [8]
1 | O=C(CN1CCN(Cc2ccc3cccc(O)c3n2)CC1)Nc1c2c(nc3ccccc13)CCCC2 [Compound 15a, 2-(4-((8-Hydroxyquinolin-2-yl)methyl)piperazin-1-yl)-N-(1,2,3,4-tetrahydroacridin-9-yl)acetamide] | 2.02 ± 0.12 µM | 0.26 | 7.74 ± 0.89 µM | 46.8 ± 4.1% | 10.14 | around 0.7 | 264 nm | 9.91 | 266 nm and 262 nm | no reliable shift |  |  |  |  | 
2 | Oc1cccc2ccc(CN3CCN(CCCNc4c5c(nc6ccccc46)CCCC5)CC3)nc12 [Compound 16e, 2-((4-(3-((1,2,3,4-Tetrahydroacridin-9-yl)amino)propyl)piperazin-1-yl)methyl)quinolin-8-ol] | 0.1 ± 0.0032 µM | 2.33 | 0.043 ± 0.005 µM | 80.5 ± 4.4% | 9.46 |  |  | 9.63 |  |  | mixed-type inhibition |  |  |  | 
3 | Nc1cccc2ccc(CN3CCN(CCCNc4c5c(nc6ccccc46)CCCC5)CC3)nc12 [Compound 16g, N-(3-(4-((8-aminoquinolin-2-yl)methyl)piperazin-1-yl)propyl)-1,2,3,4-tetrahydroacridin-9-amine] | 0.052 ± 0.001 µM | 2.89 | 0.018 ± 0.003 µM | 94.6 ± 4.2% |  |  |  |  |  | no reliable shift |  | no reliable shift | no reliable shift |  | 
4 | Cc1ccc2c(CN3CCN(CC(=O)Nc4c5c(nc6ccccc46)CCCC5)CC3)ccc(O)c2n1 [Compound 17b, 2-(4-((8-Hydroxy-2-methylquinolin-5-yl)methyl)piperazin-1-yl)-N-(1,2,3,4-tetrahydroacridin-9-yl)acetamide] | 2.53 ± 0.2 µM | 0.58 | 4.39 ± 0.27 µM | 23.3 ± 3.2% | 9.42 | around 0.7 | 265 nm | 9.71 | 262 nm | no reliable shift |  |  |  |  | 
5 | Oc1c(I)cc(Cl)c2cccnc12 [clioquinol, reference compound] |  |  |  |  | 9.86 |  |  | 8.38 |  |  |  |  |  | 10.08 | 8.84
